pIC50, pKi: −log10 of the molar value. Calls of active or inactive are those of the source. The rule behind the calls is not given here.
Legend:
Mus musculus [1] = assay: Protection against castor oil-induced diarrhea in C57BL/6 mouse assessed as improvement in stool consistency at 10 mg/kg, po pretreated for 15 mins followed by castor oil addition measured over 4 hrs; type: functional, organism-based
Mus musculus [2] = assay: Protection against castor oil-induced diarrhea in C57BL/6 mouse assessed as improvement in fecal output at 10 mg/kg, po pretreated for 15 mins followed by castor oil addition measured over 4 hrs; type: functional, organism-based
[3] = target: T1, 5-hydroxytryptamine receptor 2B (Homo sapiens, UniProt P41595); assay: Displacement of [3H]LSD from 5HT2B (unknown origin) after 1.5 hrs by microbeta scintillation counting method
T1 sequence (P41595 whole entry): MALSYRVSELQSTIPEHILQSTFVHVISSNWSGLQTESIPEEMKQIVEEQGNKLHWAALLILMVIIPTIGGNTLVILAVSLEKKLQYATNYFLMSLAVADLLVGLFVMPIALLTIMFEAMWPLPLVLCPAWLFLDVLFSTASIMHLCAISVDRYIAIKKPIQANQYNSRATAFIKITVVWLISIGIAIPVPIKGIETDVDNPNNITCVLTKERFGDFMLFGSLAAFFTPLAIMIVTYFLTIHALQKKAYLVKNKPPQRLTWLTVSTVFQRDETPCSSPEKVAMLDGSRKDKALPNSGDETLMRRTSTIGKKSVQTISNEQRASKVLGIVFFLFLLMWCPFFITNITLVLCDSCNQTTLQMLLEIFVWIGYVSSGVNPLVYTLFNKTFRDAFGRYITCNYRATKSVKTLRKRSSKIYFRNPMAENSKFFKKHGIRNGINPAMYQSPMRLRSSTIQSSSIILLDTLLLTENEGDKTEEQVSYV

[4] = target: T1, 5-hydroxytryptamine receptor 2B; assay: (§1) Antagonist activity at 5HT2B (unknown origin) expressed in CHOK1 cells assessed as inhibition of agonist-induced effect preincubated for 60 mins at 37 degC followed by 15 mins incubation at room temperature and subsequent agonist addition measured for 100 secs by fluorescence assay; type: functional, cell-based
[5] = target: T1, 5-hydroxytryptamine receptor 2B; assay: as §1, with “effect at 10 uM” for “effect”, “assay relative to control” for “assay”; type: functional, cell-based
Mus musculus [6] = assay: Protection against castor oil-induced diarrhea in C57BL/6 mouse assessed as improvement in body weight at 10 mg/kg, po pretreated for 15 mins followed by castor oil addition measured over 4 hrs; type: functional, organism-based

pKi [3]	pIC50 [4]	SMILES	further results
	5.71	CCOC(=O)c1cc(Br)cc(NC2=NC(N)=NC3(CCCCC3)N2)c1	
	6.67	NC1=NC2(CCCCC2)NC(Nc2cc(Br)cc(Br)c2)=N1	
	7.13	NC1=NC2(CCCCC2)NC(Nc2cc(F)cc(Br)c2)=N1	
8.24	7.45	NC1=NC2(CCCCC2)NC(Nc2cccc(Br)c2)=N1	

Continued, compound first:

SMILES	pKi [3]	pIC50 [4]	further results
CN(C)CC/C=C1\c2ccccc2COc2ccccc21 [E-DOXEPIN]			Activity (Mus musculus [1]): Active; Activity (Mus musculus [2]): Active
CN(C)CC/C=C1\c2ccc(F)cc2COc2ccccc21	7.78		
NC1=NC2(CCCCC2)NC(Nc2ccccc2)=N1	6.82	5.78	
CN(C)CC/C=C1\c2ccc(Cl)cc2COc2ccccc21	8.52		
Cc1cccc(NC2=NC(N)=NC3(CCCCC3)N2)c1	7.70	6.34	
NC1=NC2(CCCCC2)NC(Nc2cccc(O)c2)=N1	6.50		inhibition [5]: < 50%
NC1=NC2(CCCCC2)NC(Nc2cccc(Cl)c2)=N1	8.20	7.33	
CN(C)CC/C=C1\c2ccc(Br)cc2COc2ccccc21	8.60		Activity (Mus musculus [1]): Active; Activity (Mus musculus [2]): Active; Activity (Mus musculus [6]): Active
NC1=NC2(CCCCC2)NC(Nc2cccc(I)c2)=N1	8.77	7.63	
NC1=NC2(CCCCC2)NC(Nc2cccc(F)c2)=N1	7.27	6.39	

Source: ChEMBL document CHEMBL4266008, “Exploring Halogen Bonds in 5-Hydroxytryptamine 2B Receptor-Ligand Interactions” (ACS Med Chem Lett, 2018)
